“And” between values parts separate entries of the source, which are not always exact repeats. Equal values may be shown once.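 Grown in 96-well plates, cells were treated for 48 hours with each compound at five concentrations. Insufficient inhibition: endpoint recorded as highest concentration tested. GI50 is the concentration that inhibits growth by half. TGI denotes the concentration required for complete inhibition of growth.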
How the values were obtained:
Assay in all cases: NCI tumour cell line growth inhibition, 48 h
[1] = system: HCT-15 colon
[2] = system: SR leukemia
[3] = system: M19-MEL melanoma
[4] = system: A498 renal
[5] = system: DU-145 prostate
[6] = system: NCI-H522 lung
[7] = system: UACC-62 melanoma
[8] = system: SNB-75 CNS
[9] = system: HOP-18 NSCLC
[10] = system: SF-268 CNS
[11] = system: SF-539 CNS
[12] = system: SK-MEL-5 melanoma
[13] = system: IGROV1 ovarian
[14] = system: SW-620 colon
[15] = system: XF 498 CNS
[16] = system: CCRF-CEM leukemia
[17] = system: OVCAR-5 ovarian
[18] = system: OVCAR-4 ovarian
[19] = system: NCI/ADR-RES ovarian
[20] = system: HS 578T breast
[21] = system: 786-0 renal
[22] = system: HCC-2998 colon
[23] = system: EKVX NSCLC
[24] = system: K-562 leukemia
[25] = system: M14 melanoma
[26] = system: RPMI-8226 leukemia
[27] = system: BT-549 breast
[28] = system: RXF 393 renal
[29] = system: MCF7 breast
[30] = system: HT29 colon
[31] = system: KM12 colon
[32] = system: PC-3 prostate
[33] = system: MDA-MB-231 breast
[34] = system: SNB-19 CNS
[35] = system: CAKI-1 renal
[36] = system: SK-OV-3 ovarian
[37] = system: OVCAR-3 ovarian
[38] = system: SK-MEL-28 melanoma
[39] = system: HOP-92 NSCLC
[40] = system: DMS 114 small cell lung
[41] = system: SNB-78 CNS
[42] = system: UACC-257 melanoma
[43] = system: MALME-3M melanoma
[44] = system: SF-295 CNS
[45] = system: MOLT-4 leukemia
[46] = system: NCI-H226 lung
[47] = system: OVCAR-8 ovarian
[48] = system: HCT-116 colon
[49] = system: HL-60(TB) leukemia
[50] = system: MDA-MB-435
[51] = system: DMS 273 small cell lung
[52] = system: A549 NSCLC
[53] = system: MDA-N
[54] = system: LOX IMVI melanoma
[55] = system: NCI-H460 lung
[56] = system: TK-10 renal
[57] = system: ACHN renal
[58] = system: DLD-1 colon
[59] = system: KM20L2 colon
[60] = system: NCI-H23 lung
[61] = system: SN12C renal
[62] = system: P388/ADR leukemia
[63] = system: SK-MEL-2 melanoma
[64] = system: HOP-62 NSCLC
[65] = system: UO-31 renal
[66] = system: U251 CNS
[67] = system: COLO 205 colon
[68] = system: T-47D breast

`C/C=C1\NC(=O)[C@H]2CSSCCC=C[C@H](CC(=O)N[C@H](C(C)C)C(=O)N2)OC(=O)[C@H](C(C)C)NC1=O` was tested, and the GI50 [1] was 203 nM and 55.1 nM, the TGI [1] was 3750 nM and 1590 nM and the GI50 [2] was < 10 nM and 0.119 nM. The TGI [2] was 221 nM and 28.6 nM and 47 nM, the TGI [3] was 56.4 nM and 65 nM and the GI50 [4] was under 10 nM. The TGI [4] was < 10 nM and 0.402 nM, the GI50 [5] was under 10 nM and the TGI [5] was 226 nM and 64.5 nM and 199 nM. The GI50 [6] was < 10 nM and 0.105 nM, the TGI [6] was < 10 nM and 0.166 nM and the GI50 [7] was under 10 nM. For the same compound, the TGI [7] was < 10 nM and 11.3 nM, the GI50 [8] was under 10.4 nM and the TGI [9] was 54 nM and 71.9 nM. The GI50 [10] was under 10 nM, the TGI [10] was 20.6 nM and 40.1 nM and the GI50 [11] was under 10 nM. The TGI [11] was 179 nM and 51 nM and 46.9 nM, the GI50 [12] was under 10 nM and the TGI [12] was < 10 nM and 0.359 nM. For the same compound, the GI50 [13] was < 10 nM and 0.421 nM, the GI50 [14] was under 10 nM and the TGI [14] was < 10 nM and 19.5 nM and < 16.1 nM. The TGI [15] was 15.5 nM and 62.4 nM, the GI50 [16] was under 10 nM and the TGI [16] was 273 nM and 53.4 nM and 102 nM. For the same compound, the GI50 [17] was < 10 nM and 0.261 nM, the GI50 [18] was 10.9 nM and < 10.2 nM and the TGI [18] was 201 nM and 89.2 nM and 619 nM. For the same compound, the GI50 [19] was 1980 nM and 676 nM, the TGI [19] was 27.7 µM and 11.2 µM and the GI50 [20] was under 10 nM. For the same compound, the TGI [20] was 43.9 nM, the GI50 [21] was < 10 nM and 0.554 nM and the GI50 [22] was 0.813 nM. For the same compound, the TGI [22] was < 10 nM and 4.48 nM, the GI50 [23] was under 10 nM and the GI50 [24] was < 10 nM and 0.147 nM. The GI50 [25] was under 10 nM, the TGI [25] was 263 nM and 82.6 nM and 206 nM and the GI50 [26] was under 10 nM. The GI50 [27] was < 10 nM and 0.0646 nM and < 11.1 nM, the GI50 [28] was under 10 nM and the TGI [28] was 10.1 nM and 2.53 nM. The GI50 [29] was under 10 nM, the TGI [29] was 14.8 nM and 9.81 nM and 35.2 nM and the GI50 [30] was under 10 nM. The TGI [30] was < 10 nM and 11.6 nM and 26.2 nM, the GI50 [31] was under 10 nM and the GI50 [32] was under 10 nM. The GI50 [33] was under 10 nM, the GI50 [34] was under 10 nM and the TGI [34] was 30.1 nM and 53.8 nM. The GI50 [35] was under 33.9 nM, the TGI [35] was 77.2 nM and 24.4 nM and < 10.4 nM and the GI50 [36] was < 10 nM and 0.175 nM. The TGI [36] was < 10 nM and 7.89 nM, the GI50 [37] was under 10 nM and the TGI [37] was < 10.8 nM and 2.94 nM. The GI50 [38] was under 10 nM, the TGI [38] was < 10 nM and 17.5 nM and < 12.2 nM and the GI50 [39] was under 10 nM. For the same compound, the TGI [39] was < 10 nM and 16.1 nM and < 32.4 nM, the TGI [40] was 8.85 nM and the GI50 [41] was 12.3 nM. For the same compound, the GI50 [42] was < 10 nM and 0.137 nM, the GI50 [43] was < 10 nM and 0.0209 nM and the GI50 [44] was under 10 nM. The TGI [44] was < 10 nM and 13 nM, the GI50 [45] was under 10 nM and the GI50 [46] was under 10 nM. The TGI [46] was 268 nM and 31.7 nM and < 31.2 nM, the GI50 [47] was under 10 nM and the TGI [47] was 66.8 nM and 72 nM and 154 nM. The GI50 [48] was under 10 nM, the TGI [48] was < 10 nM and 14.5 nM and 19.3 nM and the GI50 [49] was < 10 nM and 0.299 nM. For the same compound, the GI50 [50] was under 10 nM, the TGI [50] was < 13.4 nM and 20.7 nM and 125 nM and the TGI [51] was 10.2 nM. For the same compound, the GI50 [52] was under 10 nM, the TGI [52] was < 12 nM and 20.5 nM and 18.5 nM and the TGI [53] was 17.6 nM and < 31.9 nM. For the same compound, the GI50 [54] was < 10 nM and 0.122 nM, the TGI [54] was < 10 nM and 1.04 nM and the GI50 [55] was under 10 nM. The GI50 [56] was under 10 nM, the GI50 [57] was under 10 nM and the TGI [57] was 45.9 nM and 36.4 nM. The GI50 [58] was 10.2 nM, the TGI [58] was 289 nM and the TGI [59] was 7.96 nM. It also gave a GI50 [60] of under 10 nM, a GI50 [61] of under 10 nM and a TGI [62] of 125 nM. For the same compound, the GI50 [63] was < 10 nM and 0.0954 nM, the GI50 [64] was under 10 nM and the GI50 [65] was 26 nM and 14.5 nM. For the same compound, the GI50 [66] was < 10 nM and 0.136 nM, the TGI [66] was < 10 nM and 1.47 nM and < 25.2 nM and the GI50 [67] was < 10 nM and 0.172 nM. For the same compound, the TGI [67] was < 10 nM and 0.811 nM, the GI50 [68] was under 10 nM and the TGI [68] was < 10 nM and 10.3 nM.

From PubChem BioAssay (NCI)
